# Laboratory results from ChEMBL document CHEMBL3390836, “Mannich- and LedererManasse-based analogues of the natural product S-(+)-curcuphenol as cancer proliferation and migration inhibitors” (Medchemcomm, 2012).
# Key:
# Format in all cases: functional
# [1] = system: TK-10; assay: Cytotoxicity against human TK10 cells assessed as cell growth at 10^-7 M after 48 hrs by SRB assay relative to control; conditions: TK-10, 48 h, read-out: Activity
# [2] = system: T47D; assay: Cytotoxicity against human T47D cells assessed as cell growth at 10^-7 M after 48 hrs by SRB assay relative to control; conditions: read-out: Activity
# [3] = system: CAKI-1; assay: Cytotoxicity against human Caki1 cells assessed as cell growth at 10^-7 M after 48 hrs by SRB assay relative to control; conditions: CAKI-1, 48 h, read-out: Activity
# [4] = Cytotoxicity against human OVCAR8 cells assessed as cell growth at 10^-8 M after 48 hrs by SRB assay relative to control; conditions: OVCAR-8, 48 h, read-out: Activity
# [5] = Cytotoxicity against human HCT116 cells assessed as cell growth at 10^-7 M after 48 hrs by SRB assay relative to control; conditions: HCT-116, 48 h, read-out: Activity
# [6] = system: SK-MEL-28; assay: Cytotoxicity against human SK-MEL-28 cells assessed as cell growth at 10^-4 M after 48 hrs by SRB assay relative to control; conditions: SK-MEL-28, 48 h, read-out: Activity
# [7] = Cytotoxicity against human HCT15 cells assessed as cell growth at 10^-6 M after 48 hrs by SRB assay relative to control; conditions: HCT-15, 48 h, read-out: Activity
# [8] = system: MDA-MB-468; assay: Cytotoxicity against human MDA-MB-468 cells assessed as cell growth at 10^-6 M after 48 hrs by SRB assay relative to control; conditions: MDA-MB-468, 48 h, read-out: Activity
# [9] = Cytotoxicity against human EKVX cells assessed as cell growth at 10^-8 M after 48 hrs by SRB assay relative to control; conditions: read-out: Activity
# [10] = system: LOX IMVI; assay: Cytotoxicity against human LOXIMVI cells assessed as cell growth at 10^-8 M after 48 hrs by SRB assay relative to control; conditions: read-out: Activity
# [11] = system: SF-268; assay: Cytotoxicity against human SF268 cells assessed as cell growth at 10^-8 M after 48 hrs by SRB assay relative to control; conditions: SF-268, 48 h, read-out: Activity
# [12] = system: IGROV-1; assay: Cytotoxicity against human IGROV1 cells after 48 hrs by SRB assay; conditions: IGROV-1, 48 h
# [13] = system: 786-0; assay: Cytotoxicity against human 786-0 cells assessed as cell growth at 10^-7 M after 48 hrs by SRB assay relative to control; conditions: 786-0, 48 h, read-out: Activity
# [14] = system: Malme-3M; assay: Cytotoxicity against human MALME-3M cells after 48 hrs by SRB assay
# [15] = Cytotoxicity against human HCT15 cells assessed as cell growth at 10^-7 M after 48 hrs by SRB assay relative to control; conditions: HCT-15, 48 h, read-out: Activity
# [16] = system: KM12; assay: Cytotoxicity against human KM12 cells after 48 hrs by SRB assay; conditions: KM12, 48 h
# [17] = system: SF-268; assay: Cytotoxicity against human SF268 cells assessed as cell growth at 10^-7 M after 48 hrs by SRB assay relative to control; conditions: SF-268, 48 h, read-out: Activity
# [18] = system: SNB-19; assay: Cytotoxicity against human SNB19 cells assessed as cell growth at 10^-8 M after 48 hrs by SRB assay relative to control; conditions: SNB-19, 48 h, read-out: Activity
# [19] = system: A498; assay: Cytotoxicity against human A498 cells assessed as cell growth at 10^-4 M after 48 hrs by SRB assay relative to control; conditions: A498, 48 h, read-out: Activity
# [20] = Cytotoxicity against human UACC62 cells assessed as cell growth at 10^-7 M after 48 hrs by SRB assay relative to control; conditions: UACC-62, 48 h, read-out: Activity
# [21] = Cytotoxicity against human OVCAR4 cells assessed as cell growth at 10^-8 M after 48 hrs by SRB assay relative to control; conditions: OVCAR-4, 48 h, read-out: Activity
# [22] = system: HL-60(TB); assay: Cytotoxicity against human HL-60(TB) cells after 48 hrs by SRB assay; conditions: HL-60, 48 h
# [23] = system: MDA-MB-231; assay: Cytotoxicity against human MDA-MB-231 cells after 48 hrs by SRB assay; conditions: MDA-MB-231, 48 h
# [24] = system: SK-MEL-28; assay: Cytotoxicity against human SK-MEL-28 cells after 48 hrs by SRB assay; conditions: SK-MEL-28, 48 h
# [25] = system: NCI-H460; assay: Cytotoxicity against human NCI-H460 cells assessed as cell growth at 10^-7 M after 48 hrs by SRB assay relative to control; conditions: NCI-H460, 48 h, read-out: Activity
# [26] = system: A498; assay: Cytotoxicity against human A498 cells after 48 hrs by SRB assay; conditions: A498, 48 h
# [27] = system: SF-295; assay: Cytotoxicity against human SF295 cells assessed as cell growth at 10^-8 M after 48 hrs by SRB assay relative to control; conditions: SF-295, 48 h, read-out: Activity
# [28] = Cytotoxicity against human PC3 cells after 48 hrs by SRB assay; conditions: PC-3, 48 h
# [29] = system: SK-MEL-2; assay: Cytotoxicity against human SK-MEL-2 cells assessed as cell growth at 10^-8 M after 48 hrs by SRB assay relative to control; conditions: SK-MEL-2, 48 h, read-out: Activity
# [30] = system: 786-0; assay: Cytotoxicity against human 786-0 cells assessed as cell growth at 10^-8 M after 48 hrs by SRB assay relative to control; conditions: 786-0, 48 h, read-out: Activity
# [31] = Cytotoxicity against human SKOV3 cells after 48 hrs by SRB assay; conditions: SK-OV-3, 48 h
# [32] = system: ACHN; assay: Cytotoxicity against human ACHN cells assessed as cell growth at 10^-7 M after 48 hrs by SRB assay relative to control; conditions: read-out: Activity
# [33] = system: HT-29; assay: Cytotoxicity against human HT-29 cells assessed as cell growth at 10^-6 M after 48 hrs by SRB assay relative to control; conditions: HT-29, 48 h, read-out: Activity
# [34] = system: SF-539; assay: Cytotoxicity against human SF539 cells assessed as cell growth at 10^-6 M after 48 hrs by SRB assay relative to control; conditions: SF-539, 48 h, read-out: Activity
# [35] = system: SK-MEL-5; assay: Cytotoxicity against human SK-MEL-5 cells assessed as cell growth at 10^-4 M after 48 hrs by SRB assay relative to control; conditions: SK-MEL-5, 48 h, read-out: Activity
# [36] = read-out: LC50 (the source's name)
structure (smiles),measurement,setting,value
CC(C)=CCC[C@H](C)c1ccc(C)c2c1OCN(CC1CCNCC1)C2,growth at 0.1 µM,[1],113%
same,growth at 0.1 µM,[2],94%
same,growth at 0.1 µM,[3],108%
same,growth at 0.01 µM,[4],106%
same,growth at 0.1 µM,[5],100%
same,growth at 100 µM,[6],-98%
same,growth at 1 µM,[7],95%
same,growth at 1 µM,[8],99%
same,growth at 0.01 µM,[9],104%
same,growth at 0.01 µM,[10],100%
same,growth at 0.01 µM,[11],102%
same,GI50,[12],16.6 µM
same,LC50 (concentration killing 50% of cells),[12],62.5 µM
same,TGI,[12],32.2 µM
same,growth at 0.1 µM,[13],88%
same,GI50,[14],17.7 µM
same,TGI,[14],35.3 µM
same,CC50,[14]; [36],70.2 µM
same,growth at 0.1 µM,[15],91%
same,GI50,[16],12.3 µM
same,TGI,[16],26 µM
same,CC50,[16]; [36],55 µM
same,growth at 0.1 µM,[17],99%
same,growth at 0.01 µM,[18],95%
same,growth at 100 µM,[19],-90%
same,growth at 0.1 µM,[20],96%
same,growth at 0.01 µM,[21],102%
same,GI50,[22],3.9 µM
same,TGI,[22],18.9 µM
same,CC50,[22]; [36],59.3 µM
same,GI50,[23],12.5 µM
same,LC50,[23],64.1 µM
same,TGI,[23],28.3 µM
same,GI50,[24],15.7 µM
same,TGI,[24],28.3 µM
same,CC50,[24]; [36],54.8 µM
same,growth at 0.1 µM,[25],106%
same,GI50,[26],12.3 µM
same,TGI,[26],26 µM
same,CC50,[26]; [36],55 µM
same,growth at 0.01 µM,[27],92%
same,GI50,[28],16.5 µM
same,LC50,[28],> 100 µM
same,TGI,[28],42.1 µM
same,growth at 0.01 µM,[29],108%
same,growth at 0.01 µM,[30],96%
same,GI50,[31],16.7 µM
same,LC50 (concentration killing 50% of cells),[31],57.8 µM
same,TGI,[31],31.1 µM
same,growth at 0.1 µM,[32],105%
same,growth at 1 µM,[33],103%
same,growth at 1 µM,[34],104%
same,growth at 100 µM,[35],-85%
